The results in this text go back to ChEMBL document CHEMBL3352670, “Synthesis, biological evaluation and molecular modeling of 1,3,4-thiadiazol-2-amide derivatives as novel antitubulin agents” (Bioorg Med Chem, 2014).

Assay [1] has as its system A549. Put plainly: Antiproliferative activity against human A549 cells after 48 hrs by MTT assay. The note with it: A549, 48 h. Format: functional, cell-based. A general note: Tetrazolium assays rely on reduction of a dye to a coloured formazan, in cell work by metabolically active cells.
Assay [2] has as its system MCF7. Kind of assay: Antiproliferative activity against human MCF7 cells after 48 hrs by MTT assay. Format: functional, cell-based. The settings on record: MCF7, 48 h.
For assay [3], the system named is HepG2. Put plainly: Antiproliferative activity against […] HepG2 cells after 48 hrs by MTT assay. Format: functional, cell-based. The note with it: Homo sapiens, HepG2, 48 h.
Assay [4] deals with Tubulin (Bos taurus, UniProt Q6B856+Q862L2+Q862F3). Kind of assay: Inhibition of bovine brain tubulin polymerization after 20 mins by turbidimetric method.
Assay [5] has as its system A549. Put plainly: Induction of apoptosis in human A549 cells assessed as viable cells at 0.01 uM after 24 hrs using Annexin-V/PI staining by flow cytometry (reference value: 91.0 %). In kind it is functional. The note with it: A549, 24 h, read-out: Activity. A general note: In flow cytometry, cells or beads pass a laser one at a time.
Assay [6] has as its system A549. Put plainly: Induction of apoptosis in human A549 cells assessed as early apoptotic cells at 0.01 uM after 24 hrs using Annexin-V/PI staining by flow cytometry (reference value: 1.92 %). In kind it is functional.
Assay [7] deals with A549. Kind of assay: Induction of apoptosis in human A549 cells assessed as late apoptotic cells at 0.01 uM after 24 hrs using Annexin-V/PI staining by flow cytometry (reference value: 4.01 %). Format: functional.
Assay [8] relates to A549. Kind of assay: Induction of apoptosis in human A549 cells assessed as necrotic cells at 0.01 uM after 24 hrs using Annexin-V/PI staining by flow cytometry (reference value: 3.11 %). In kind it is functional.
Assay [9] concerns A549. Put plainly: Induction of apoptosis in human A549 cells assessed as viable cells at 0.05 uM after 24 hrs using Annexin-V/PI staining by flow cytometry (reference value: 91.0 %). In kind it is functional. The settings on record: A549, 24 h, read-out: Activity.
The test system of assay [10] is A549. Kind of assay: Induction of apoptosis in human A549 cells assessed as early apoptotic cells at 0.05 uM after 24 hrs using Annexin-V/PI staining by flow cytometry (reference value: 1.92 %). In kind it is functional.
The subject of assay [11] is A549. Kind of assay: Induction of apoptosis in human A549 cells assessed as late apoptotic cells at 0.05 uM after 24 hrs using Annexin-V/PI staining by flow cytometry (reference value: 4.01 %). In kind it is functional.
The subject of assay [12] is A549. Kind of assay: Induction of apoptosis in human A549 cells assessed as necrotic cells at 0.05 uM after 24 hrs using Annexin-V/PI staining by flow cytometry (reference value: 3.11 %). In kind it is functional.
Assay [13] concerns A549. Kind of assay: Induction of apoptosis in human A549 cells assessed as viable cells at 0.1 uM after 24 hrs using Annexin-V/PI staining by flow cytometry (reference value: 91.0 %). Format: functional. The settings on record: A549, 24 h, read-out: Activity.
Assay [14] concerns A549. Put plainly: Induction of apoptosis in human A549 cells assessed as early apoptotic cells at 0.1 uM after 24 hrs using Annexin-V/PI staining by flow cytometry (reference value: 1.92 %). In kind it is functional.
The subject of assay [15] is A549. Kind of assay: Induction of apoptosis in human A549 cells assessed as late apoptotic cells at 0.1 uM after 24 hrs using Annexin-V/PI staining by flow cytometry (reference value: 4.01 %). In kind it is functional.
For assay [16], the system named is A549. Put plainly: Induction of apoptosis in human A549 cells assessed as necrotic cells at 0.1 uM after 24 hrs using Annexin-V/PI staining by flow cytometry (reference value: 3.11 %). Format: functional.
Assay [17] deals with A549. Kind of assay: Cell cycle arrest in human A549 cells assessed as G2/M arrest after 48 hrs by flow cytometry. Format: functional, cell-based.
The subject of assay [18] is A549. Kind of assay: Cell cycle arrest in human A549 cells assessed as accumulation at G1 phase at 0.01 uM after 48 hrs by flow cytometry (reference value: 79.42 %). In kind it is functional.
Assay [19] deals with A549. Kind of assay: Cell cycle arrest in human A549 cells assessed as accumulation at G2 phase at 0.01 uM after 48 hrs by flow cytometry (reference value: 6.75 %). Format: functional.
Assay [20] relates to A549. Put plainly: Cell cycle arrest in human A549 cells assessed as accumulation at S phase at 0.01 uM after 48 hrs by flow cytometry (reference value: 13.83 %). Format: functional.
Assay [21] relates to A549. Kind of assay: Cell cycle arrest in human A549 cells assessed as accumulation at G1 phase at 0.05 uM after 48 hrs by flow cytometry (reference value: 79.42 %). In kind it is functional.
Assay [22] relates to A549. Kind of assay: Cell cycle arrest in human A549 cells assessed as accumulation at G2 phase at 0.05 uM after 48 hrs by flow cytometry (reference value: 6.75 %). Format: functional.
The test system of assay [23] is A549. Put plainly: Cell cycle arrest in human A549 cells assessed as accumulation at S phase at 0.05 uM after 48 hrs by flow cytometry (reference value: 13.83 %). In kind it is functional.
The test system of assay [24] is A549. Kind of assay: Cell cycle arrest in human A549 cells assessed as accumulation at G1 phase at 0.1 uM after 48 hrs by flow cytometry (reference value: 79.42 %). Format: functional.
In assay [25] the test system is A549. Put plainly: Cell cycle arrest in human A549 cells assessed as accumulation at G2 phase at 0.1 uM after 48 hrs by flow cytometry (reference value: 6.75 %). Format: functional.
For assay [26], the system named is A549. Kind of assay: Cell cycle arrest in human A549 cells assessed as accumulation at S phase at 0.1 uM after 48 hrs by flow cytometry (reference value: 13.83 %). Format: functional.

For orientation: IC50 means the midpoint of a concentration-inhibition curve.

In the case of `COc1ccc(/C=C/c2nnc(NC(=O)c3cc(OC)c(OC)c(OC)c3Br)s2)cc1`, the IC50 in assay [1] came out at 180 nM; in assay [2], 550 nM; in [3], 210 nM; in assay [4] it was 28580 nM.

With `COc1cc(/C=C/c2nnc(NC(=O)c3cc(OC)c(OC)c(OC)c3Br)s2)c(Br)c(OC)c1OC`, the 50% inhibitory concentration (IC50) in assay [1] was 130 nM; in assay [2], 470 nM; in assay [3], 200 nM; in assay [4] it was 16790 nM.

`COc1cc(/C=C/c2nnc(NC(=O)c3cc(OC)c(OC)c(OC)c3)s2)cc(OC)c1OC`: the IC50 in assay [1] came to 160 nM; in assay [2], 490 nM; in [3] it was 280 nM; in assay [4], 23940 nM.

For the compound `COc1ccc(C(=O)Nc2nnc(/C=C/c3cc(OC)c(OC)c(OC)c3Br)s2)cc1`, the IC50 in [1] amounted to 150 nM; in [2], 560 nM; in assay [3], 220 nM; in [4] it was 18790 nM.

Take `COc1cc(/C=C/c2nnc(NC(=O)c3cccc(F)c3)s2)c(Br)c(OC)c1OC`: the IC50 in assay [1] came to 80 nM; in assay [2] it was 340 nM; in assay [3] it was 170 nM; in assay [4], 7080 nM.

Regarding `COc1cc(/C=C/c2nnc(NC(=O)c3ccccc3)s2)c(Br)c(OC)c1OC`, the IC50 in [1] was determined as 110 nM; in assay [2], 290 nM; in [3] it was 180 nM; in [4], 9830 nM.

Take `COc1cc(/C=C/c2nnc(NC(=O)c3ccccc3Br)s2)c(Br)c(OC)c1OC`: the IC50 in assay [1] came to 210 nM; in assay [2], 370 nM; in assay [3], 250 nM; in assay [4], 19450 nM.

As for `COc1cccc(/C=C/c2nnc(NC(=O)c3cc(OC)c(OC)c(OC)c3Br)s2)c1`, the IC50 in [1] worked out at 190 nM; in [2] it was 590 nM; in [3], 210 nM; in assay [4] it was 30360 nM.

For the compound `COc1cc(/C=C/c2nnc(NC(=O)c3ccc(Cl)cc3)s2)c(Br)c(OC)c1OC`, the IC50 in assay [1] stood at 140 nM; in [2], 280 nM; in assay [3], 180 nM; in [4], 11810 nM.

For the compound `COc1cccc(C(=O)Nc2nnc(/C=C/c3cc(OC)c(OC)c(OC)c3Br)s2)c1`, the IC50 is 60 nM in assay [1], 170 nM in assay [2], 120 nM in [3] and 3080 nM in assay [4].

As to `COc1ccc(/C=C/c2nnc(NC(=O)c3ccccc3OC)s2)cc1OC`, the IC50 worked out at 170 nM in assay [1], 540 nM in assay [2], 260 nM in assay [3] and 29440 nM in assay [4].

With `COc1ccc(C(=O)Nc2nnc(/C=C/c3cc(OC)c(OC)c(OC)c3Br)s2)cc1OC`, the IC50 was determined as 30 nM in [1], 60 nM in assay [2], 50 nM in [3] and 1730 nM in assay [4]. Also, in assay [5], the viability at 0.01 µM came to 84.8%. For the same compound, the Activity in assay [6] was 3.41%; in assay [7], 7.96%; in [8] it was 3.86%; in [10] it was 5.48%; in assay [11] it was 12.7%; in assay [12], 4.08%. The Activity in assay [14] is 12.9%; in assay [15] it was 22%; in [16] it was 3.21%; in [17], “Dose-dependent effect”; in [18], 73.18%; in [19], 7.14%. Moreover, the Activity in assay [20] stood at 19.68%; in assay [21], 37.17%; in assay [22], 53.34%; in [23], 9.49%; in assay [24], 0%; in assay [25] it was 89.26%. For the same compound, the Activity in assay [26] turned out to be 10.74%. The viability at 0.05 µM in assay [9] was determined as 77.8%. Besides, the viability at 0.1 µM in [13] was 61.8%.

For `COc1cccc(C(=O)Nc2nnc(/C=C/c3cc(OC)c(OC)c(OC)c3)s2)c1`, the IC50 came out at 150 nM in assay [1], 480 nM in assay [2], 270 nM in [3] and 22500 nM in assay [4].

For `COc1cc(/C=C/c2nnc(NC(=O)c3ccc(Br)cc3)s2)c(Br)c(OC)c1OC`, the IC50 in [1] came to 160 nM; in assay [2], 320 nM; in assay [3], 200 nM; in assay [4], 15090 nM.

For `COc1cc(/C=C/c2nnc(NC(=O)c3cccc(Cl)c3)s2)c(Br)c(OC)c1OC`, the IC50 worked out at 70 nM in assay [1], 230 nM in assay [2], 150 nM in assay [3] and 5680 nM in assay [4].

`COc1ccc(C(=O)Nc2nnc(/C=C/c3cc(OC)c(OC)c(OC)c3)s2)cc1OC`: the IC50 in assay [1] stood at 130 nM; in [2], 480 nM; in assay [3] it was 250 nM; in assay [4], 15500 nM.

Regarding `COc1cc(/C=C/c2nnc(NC(=O)c3cccc(O)c3)s2)cc(OC)c1OC`, the IC50 in [1] came to 190 nM; in [2] it was 460 nM; in assay [3], 260 nM; in assay [4] it was 23670 nM.

Turning to `COc1cc(/C=C/c2nnc(NC(=O)c3cccc(Br)c3)s2)c(Br)c(OC)c1OC`, the IC50 in assay [1] stood at 80 nM; in [2] it was 260 nM; in [3], 160 nM; in [4], 6020 nM.

Take `COc1ccccc1C(=O)Nc1nnc(/C=C/c2cc(OC)c(OC)c(OC)c2Br)s1`: the IC50 is 170 nM in [1], 600 nM in assay [2], 230 nM in assay [3] and 17910 nM in assay [4].

Take `COc1cc(C(=O)Nc2nnc(/C=C/c3cc(OC)c(OC)c(OC)c3Br)s2)cc(OC)c1OC`: the IC50 came to 140 nM in assay [1], 510 nM in [2], 210 nM in [3] and 16950 nM in assay [4].

For `COc1ccc(/C=C/c2nnc(NC(=O)c3cc(OC)c(OC)c(OC)c3)s2)cc1OC`, the IC50 was 160 nM in [1], 560 nM in assay [2], 220 nM in assay [3] and 28060 nM in assay [4].

In the case of `COc1cc(/C=C/c2nnc(NC(=O)c3cccc(O)c3)s2)c(Br)c(OC)c1OC`, the IC50 came to 120 nM in [1], 360 nM in assay [2], 220 nM in assay [3] and 13440 nM in assay [4].

Consider `COc1cc(/C=C/c2nnc(NC(=O)c3ccc(F)cc3)s2)c(Br)c(OC)c1OC`, for which the IC50 in assay [1] is 190 nM; in assay [2] it was 380 nM; in [3], 240 nM; in assay [4], 15630 nM.

As to `COc1ccc(/C=C\c2cc(OC)c(OC)c(OC)c2)cc1O` [COMBRETASTATIN A4], the midpoint of inhibition in assay [3], the IC50, lay at 160 nM.
